Source: PubChem BioAssay (NCI)
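Dose response: 5 concentrations. Exposure: 48 h. Format: 96-well plates. Endpoint: linear interpolation; highest concentration if not reached. GI50: concentration for 50% inhibition of growth. TGI marks complete inhibition of growth.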

Experiments:
Test in all cases: NCI tumour cell line growth inhibition, 48 h
RXF 393 renal = test system: RXF 393 renal
EKVX NSCLC = test system: EKVX NSCLC
HOP-92 NSCLC = test system: HOP-92 NSCLC
MALME-3M melanoma = test system: MALME-3M melanoma
UACC-62 melanoma = test system: UACC-62 melanoma
SF-539 CNS = test system: SF-539 CNS
SF-268 CNS = test system: SF-268 CNS
SR leukemia = test system: SR leukemia
BT-549 breast = test system: BT-549 breast
HS 578T breast = test system: HS 578T breast

SMILES	TGI (RXF 393 renal) [µM]	TGI (EKVX NSCLC) [µM]	TGI (HOP-92 NSCLC) [µM]	TGI (MALME-3M melanoma) [µM]	TGI (UACC-62 melanoma) [µM]	TGI (SF-539 CNS) [µM]	TGI (SF-268 CNS) [µM]	GI50 (RXF 393 renal) [µM]	GI50 (SR leukemia) [µM]	TGI (SR leukemia) [µM]	GI50 (HOP-92 NSCLC) [µM]	GI50 (BT-549 breast) [µM]	TGI (BT-549 breast) [µM]	GI50 (HS 578T breast) [µM]	TGI (HS 578T breast) [µM]	GI50 (MALME-3M melanoma) [µM]	GI50 (UACC-62 melanoma) [µM]	GI50 (SF-539 CNS) [µM]	GI50 (SF-268 CNS) [µM]	GI50 (EKVX NSCLC) [µM]
CCOP(=O)(OCC)C(C(=O)OC)C(=O)C(=O)Nc1ccc(Cl)cc1Cl (stereo not given)	> 100	> 100	> 100	> 100	> 100	> 100	> 100	–	–	–	–	–	–	–	–	–	–	–	–	–
Cc1cc2c(c(C(N)=O)c1C)-c1ccccc1C2=O	> 100	> 100	> 100	> 100	> 100	> 100	> 100	–	–	–	–	–	–	–	–	–	–	–	–	–
CC(C)(C)[Si](C)(C)OC1[C@@H](CNC(=O)NC(=O)CCl)O[C@@H](n2cnc3c(N)ncnc32)[C@H]1O[Si](C)(C)C(C)(C)C (stereo not given in full)	1.58	–	1.86	1.96	1.74	1.67	2.09	0.859	0.162	0.562	0.885	0.869	1.73	1.14	3.17	0.98	0.877	0.944	1.06	–
COC(=O)/C([Se]c1c(C)cc(C)cc1C)=C(/[Se]c1c(C)cc(C)cc1C)C(=O)OC	> 100	> 100	> 100	> 100	> 100	> 100	> 100	–	–	> 100	–	–	–	–	–	–	–	–	–	–
CCOC(=O)NC(=O)c1cn(C2CCCCC2)c(=O)[nH]c1=O	–	> 100	> 100	> 100	> 100	> 100	> 100	–	–	–	–	–	–	–	–	–	–	–	–	–
CC(=O)N1CCN(c2ccc(OCC3COC(Cn4ccnc4)(c4ccc(Cl)cc4Cl)O3)cc2)CC1 (stereo not given)	57.8	–	> 100	> 100	38	–	–	–	–	66.5	–	–	–	–	–	–	–	–	–	–
O=C(O)c1cccc(COc2ccc([N+](=O)[O-])cc2Cl)c1	–	4.87	> 100	–	> 100	–	85.6	–	–	–	45.2	53.4	> 100	–	–	–	> 100	–	7.71	0.549
COc1c(C)n(CCO)ccc1=O	> 100	> 100	> 100	> 100	> 100	–	> 100	–	–	> 100	–	–	–	–	–	–	–	–	–	–
COc1ccc(CC2c3c(cc(OC)c(OC)c3OC)CCN2C)cc1OC (stereo not given)	–	> 100	–	> 100	–	> 100	> 100	–	–	–	–	–	–	–	–	–	–	–	–	–
Cc1[nH]c2ccccc2c1C1Cc2ccccc2N1C(=O)C#Cc1ccc([N+](=O)[O-])cc1 (stereo not given)	> 100	> 100	–	> 100	> 100	> 100	> 100	–	–	> 100	–	–	–	–	–	–	–	–	–	–
Cc1cc(Nc2nc(-c3cn(-c4ccc(Cl)cc4)nn3)nc3ccccc23)n[nH]1	26.1	–	> 50	30.1	–	> 50	> 50	5.09	8.78	40	23.6	15	> 50	> 50	> 50	10.8	–	27.3	14.6	–
O=C(N/C(=C\c1ccc([N+](=O)[O-])cc1)c1nc2ccccc2[nH]1)c1ccccc1	> 100	> 100	> 100	> 100	> 100	> 100	> 100	–	–	–	–	–	–	–	–	–	–	–	–	–
COc1cc2c(cc1O)CCN[C@]21CS[C@@H]2c3c(OC(C)=O)c(C)c4c(c3[C@H](COC1=O)N1[C@@H]2[C@H]2c3c(cc(C)c(OC)c3O)C[C@@H]([C@@H]1O)N2C)OCO4	0.00401	0.0459	0.0518	–	0.00403	–	0.0486	–	–	10.5	0.00273	–	0.00612	–	–	–	–	–	–	0.00467
COC(=O)C1C(O)C(C(=O)OC)C(C)N(C)C1C (stereo not given)	> 100	> 100	> 100	–	> 100	> 100	–	–	–	> 100	–	–	> 100	–	–	–	–	–	–	–
O=C1c2ccccc2-c2c1c1ccccc1c(=O)n2CCN1CCNCC1	19.6	26.4	17.4	6.79	3.15	–	26.4	4.31	–	–	4.44	4.96	17.8	3.74	26.5	2.53	1.37	–	5.83	7.24
CC(C)=C1CCC(CN(C)C)C1=O (stereo not given)	33.5	31.9	40.6	30.2	35.1	> 100	97.3	–	–	36.5	–	–	–	–	–	–	–	–	–	–
CC1(C)CN=C(NN=C(/C=C/c2ccc(C(F)(F)F)cc2)/C=C/c2ccc(C(F)(F)F)cc2)NC1	2.73	–	2.54	3.78	3.31	3.45	3.12	1.33	–	–	1.1	1.74	3.46	1.56	3.64	1.86	1.72	1.85	1.51	–
COc1cc(/C=C2\[C@H]3c4c(c(OC)c(C)c(OC)c4OC)CC(C(=O)N2Cc2ccccc2)N3C)c(OC)c(C)c1OC	> 100	67.6	49.9	47.3	30.4	33.4	61.3	–	–	74.4	–	–	–	–	–	–	–	–	–	–
COc1ccc(-c2nc(-c3cc(OC)cc(OC)c3)[nH]c2-c2ccc(OC)cc2)cc1	> 100	–	–	> 100	> 100	> 100	> 100	> 100	2.43	8.74	–	8.56	> 100	8.33	> 100	8.31	4.75	> 100	> 100	–
Nc1c(-c2ccccc2-c2c(N)[n+]([O-])c3ccccc3[n+]2[O-])[n+]([O-])c2ccccc2[n+]1[O-]	> 100	57.1	> 100	> 100	26.5	71.7	> 100	–	–	37.3	–	–	–	–	–	–	–	–	–	–
O=C(CC(=O)C1CCOC1=O)C(=O)Nc1cccc(Cl)c1 (stereo not given)	> 100	> 100	> 100	> 100	> 100	> 100	> 100	–	–	–	–	–	–	–	–	–	–	–	–	–
CCN1c2ccccc2-c2c3c1cc(C)cc3c1ccccc1[n+]2CC	9.51	–	–	7.73	2.23	2.51	2.04	–	–	5.21	–	–	–	–	–	–	–	–	–	–

SMILES	TGI (RXF 393 renal) [µM]	TGI (EKVX NSCLC) [µM]	TGI (HOP-92 NSCLC) [µM]	TGI (MALME-3M melanoma) [µM]	TGI (UACC-62 melanoma) [µM]	TGI (SF-539 CNS) [µM]	TGI (SF-268 CNS) [µM]	GI50 (RXF 393 renal) [µM]	GI50 (SR leukemia) [µM]	TGI (SR leukemia) [µM]	GI50 (HOP-92 NSCLC) [µM]	GI50 (BT-549 breast) [µM]	TGI (BT-549 breast) [µM]	GI50 (HS 578T breast) [µM]	TGI (HS 578T breast) [µM]	GI50 (MALME-3M melanoma) [µM]	GI50 (UACC-62 melanoma) [µM]	GI50 (SF-539 CNS) [µM]	GI50 (SF-268 CNS) [µM]	GI50 (EKVX NSCLC) [µM]
Cn1c(=O)nc2n(-c3cc(C(F)(F)F)cc(C(F)(F)F)c3)c3ccccc3nc-2c1=O	> 100	> 100	> 100	> 100	–	> 100	> 100	–	–	> 100	–	–	–	–	–	–	–	–	–	–
CN(C(=O)c1ccc([N+](=O)[O-])cc1)c1ccccc1	> 100	> 100	> 100	> 100	> 10	> 100	> 100	–	–	–	–	–	–	–	–	–	–	–	–	–
COC(=O)C(=O)C(C(C)=O)C(=O)NCc1ccc(OC)c(OC)c1 (stereo not given)	> 100	> 100	> 100	> 100	> 100	> 100	> 100	–	–	> 100	–	–	–	–	–	–	–	–	–	–
CCCC/C(=C\C1=C(C)C(=O)C(OC)=C(OC)C1=O)C(=O)O	> 100	> 100	86.7	> 100	> 100	> 100	> 100	> 100	–	–	23.5	> 100	> 100	> 100	> 100	> 100	> 100	> 100	> 100	> 100
O=c1[nH]cnc(NC2C=C(CO)C(O)C2O)c1[N+](=O)[O-] (stereo not given)	> 100	> 100	> 100	> 100	> 100	> 100	> 100	–	–	> 100	–	–	–	–	–	–	–	–	–	–
CC(C)(C)c1ccc2c(c1)S(=O)(=O)Nc1ccc(Cl)cc1NS(=O)(=O)c1cc(C(C)(C)C)ccc1OCCOCCOCCO2	79.1	> 100	72.7	80	> 100	> 100	> 100	–	–	–	–	–	–	–	–	–	–	–	–	–
Cc1cccc(C2=C/C(=C(\SS/C(C(=O)c3ccc(OCC(=O)O)c(Cl)c3Cl)=C3\C=C(c4cccc(C)c4)SS3)C(=O)c3ccc(OCC(=O)O)c(Cl)c3Cl)SS2)c1	–	> 100	23.1	74.9	38.5	39.9	39.6	–	–	–	–	–	–	–	–	–	–	–	–	–
CCC1CN2CCc3cc(OC)c(OC)cc3C2CC1CC1c2cc(OC)c(OC)cc2CCN1C(=O)C1CCCN1 (stereo not given)	73.8	> 100	> 100	37.3	–	37.8	65.2	–	–	85.1	–	–	–	–	–	–	–	–	–	–
COc1cccc(/C=N/[N-]C(=O)c2ccncc2)c1[O-].COc1cccc(/C=N/[N-]C(=O)c2ccncc2)c1[O-].[O]=[U](=[O])([OH2+])[OH2+]	25.3	> 100	54.5	> 66.3	19.4	> 42.8	49.4	6.11	3.37	> 100	14.3	–	–	–	–	12.8	3.66	4.27	4.83	2.86
CCC/C=C/C=C/C1CC(O)C(O)C(=O)C1CO (stereo not given)	> 100	> 100	> 100	–	> 100	> 100	> 100	–	–	–	–	–	> 100	–	> 100	–	–	–	–	–
N#CCCN1C/C(=C/c2ccc(Br)cc2)C(=O)/C(=C/c2ccc(Br)cc2)C1	3.04	–	4.89	5.29	4.52	2.99	–	1.55	–	–	1.71	1.56	3.04	–	–	2.23	1.93	1.61	–	–
NC(=O)C(=O)CC(=O)c1ccccc1NC1=CC(=O)C(=O)c2ccccc21	> 100	> 100	> 81.2	> 59	> 72.4	> 100	> 85.7	–	–	–	–	–	–	–	–	–	–	–	–	–
Nc1nc(-c2ccc(Cl)c([N+](=O)[O-])c2)cs1	90.1	> 100	74.6	> 100	> 100	> 100	> 100	–	–	–	–	–	–	–	–	–	–	–	–	–
Nc1ccccc1C(=O)/C=C/c1c(O)ccc2ccccc12	> 100	> 100	> 100	> 100	> 100	> 100	> 100	–	–	> 100	–	–	–	–	–	–	–	–	–	–
Cn1cc(-c2csc(-c3cn(CCCCN4CCCCC4)c4ccccc34)n2)c2cccnc21	2.99	3.03	2.7	–	3.27	–	3.37	1.48	–	–	1.32	1.75	3.37	1.67	4.16	–	1.79	–	1.71	1.58
COC(=O)/C(=N/O)C(C(=O)C=C(C)C)C(=O)C(=O)Nc1nc2ccc([N+](=O)[O-])cc2s1 (stereo not given)	–	57.8	42.8	> 100	> 100	78.3	99.2	–	–	> 100	–	–	–	–	–	–	–	–	–	–
O=[N+]([O-])c1cccc(C2=NOC(C3CCCCC3)C2)c1 (stereo not given)	–	–	> 100	> 100	> 100	> 100	> 100	–	–	–	–	–	–	–	–	–	–	–	–	–
CC1=NN(C(=O)CC(=O)Nc2ccccc2F)C(=O)C1N=Nc1ccccc1[N+](=O)[O-] (stereo not given)	> 100	> 100	–	> 100	69	> 100	> 100	–	–	–	–	–	–	–	–	–	–	–	–	–
COc1ccc(C(CC(=O)c2ccc3c(c2)OCO3)c2c(O)c3ccccc3oc2=O)cc1OC (stereo not given)	> 100	> 100	> 100	> 100	> 100	> 100	> 100	–	–	–	–	–	> 100	–	> 100	–	–	–	–	–
Cc1ccc(C)c(N2C/C(=N\NC(=O)CC#N)C(c3nc4ccccc4s3)C(=O)C2=O)c1 (stereo not given)	> 100	> 100	> 100	> 100	> 100	–	> 100	–	–	> 100	–	–	–	–	–	–	–	–	–	–
Cc1ccccc1C1=[N+]([O-])c2ccc(Cl)cc2C1=O	34.9	25	28	30.6	24.9	31.6	33.1	–	–	64.2	–	–	–	–	–	–	–	–	–	–
